# Patent US10345295B2, “Device and method for point-of-care diagnostics and antibiotic resistance identification, and applications thereof” (CORNELL UNIVERSITY, priority 2015, dated 2019)
# System: attenuated E. coli K12 strain with a kanamycin resistance gene
# Test: colorimetric phenotypic antibiotic susceptibility test (phenol red) in capillary tubes
# Assay type: cell-based
# Details: bacteria culture incubated in capillary tubes with added antibiotic; LB media, 0.05% phenol red; read at the 4-hour mark
# Experimental: According to an embodiment, a colorimetric phenotypic testing approach was utilized to assess the antibiotic susceptibility of an attenuated E. coli K12 strain. The pH indicator phenol red was used to provide a phenotypic indication of bacterial growth. For colorimetric phenotypic testing approach, bacterial growth tests were conducted with small sample volumes in a PDMS microchip. The E. coli strain with a kanamycin resistance gene as a selection marker was first streaked and incubated overnight on LB agar plates containing kanamycin. Single colonies were subsequently picked and propagated in liquid bulk culture. Following overnight bulk culture to stationary phase, small volumes (˜1 μL) of culture were separately incubated on the PDMS chip in wells each containing a 19 μL mixture of fresh LB media, 0.05% phenol red, and the antibiotics kanamycin (control) and ampicillin (test). The metabolic activity of viable bacteria leads to an accumulation of organic acids in the growth media, which causes the phenol red to change in color from red to yellow, which is expected for the control group as the E. coli stain is kanamycin resistant.
# A similar experiment was conducted by incubating the bacteria culture in capillary tubes designed to hold microliters of liquid. […]
compound,measurement,value
CC1(C)S[C@@H]2[C@H](NC(=O)[C@H](N)c3ccccc3)C(=O)N2[C@H]1C(=O)O [ampicillin],color change of phenol red pH indicator (phenotypic indication of bacterial growth),No color change
